Drawing on US10577363B2, “Substituted piperidine compounds” (EPIZYME, INC., priority 2014, dated 2020), this text covers IC50 for 26 compounds.

A word on the IC50: it is the concentration that gives 50% inhibition.

In the assay the target is SMYD3 (Homo sapiens (Human), UniProt Q9H7B4). Description: SMYD3 biochemical assay (SPA, 3H-SAM methylation of MEKK2 protein substrate). The note with it: read-out: SMYD3 Biochem IC50 (μM)*. The source says: S-adenosylmethionine (SAM), S-adenosylhomocysteine (SAH), Tris, Tween20, dimethylsulfoxide (DMSO), bovine skin gelatin (BSG), and Tris(2-carboxyethyl)phosphine hydrochloride solution (TCEP) were purchased from Sigma-Aldrich at the highest level of purity possible. ^3H-SAM was purchase from American Radiolabeled Chemicals with a specific activity of 80 Ci/mmol. 384-well opaque white OptiPlates and SPA beads (Perkin Elmer, catalog # RPNQ0013) were purchased from PerkinElmer.
N-terminally GST-tagged MEKK2 (MAP3K2) protein corresponding to reference sequence AAF63496.3 was purchased from Life Technologies (catalog # PV4010). This protein was expressed in High Five insect cells and purified to >85% purity. Protein identity was confirmed by MS/MS analysis after proteolytic digestion. The protein sequence used was:
Full-length human SMYD3 isoform 1 (BAB86333) was inserted into a modified pET21b plasmid containing a His6 tag and TEV and SUMO cleavage sites.
E. coli (BL21 codonplus RIL strain, Stratagene) were transformed with plasmid pEPZ553 by mixing competent cells and plasmid DNA and incubating on ice for 30 minutes followed by heat shock at 42° C. for 1 minute and cooling on ice for 2 minutes. Transformed cells were grown and selected on LB agar with 100 μg/mL ampicillin and 17 μg/mL chloramphenicol at 37° C. overnight. A single clone was used to inoculate 200 mL of LB medium with 100 μg/mL ampicillin and 17 μg/mL chloramphenicol and incubated at 37° C. on an orbital shaker at 180 rpm. Once in log growth, the culture was diluted 1:100 into 2 L of LB medium and grown until OD600 was about 0.3 after which the culture was incubated at 15° C. and 160 rpm. Once OD600 reached about 0.4, IPTG was added to a final concentration of 0.1 mM and the cells were grown overnight at 15° C. and 160 rpm. Cells were harvested by centrifugation at 8000 rpm, for 4 minutes at 4° C. and stored at −80° C. for purification.
The column was washed with Buffer B (Buffer A plus 20 mM imidazole) and His-tagged SMYD3 was eluted with Buffer C (Buffer A plus 300 mM imidazole). The His tag, TEV and SUMO cleavage sites were removed generating native SMYD3 by addition of ULP1 protein at a ratio of 1:200 (ULP1:SMYD3). Imidazole was removed by dialysis overnight in Buffer A. The dialyzed solution was applied to a second Nickel column and the native SMYD3 protein was collected from the column flow-through. The flow-through was dialyzed in Buffer D (25 mM Tris, 5% glycerol, 5 mM β-mercaptoethanol, 50 mM NaCl, pH7.8) and ULP1 was removed using a Q sepharose fast flow column.
General Procedure for SMYD3 Enzyme Assays on MEKK2 Protein Substrate
The assays were all performed in a buffer consisting of 25 mM Tris-Cl pH 8.0, 1 mM TCEP, 0.005% BSG, and 0.005% Tween 20, prepared on the day of use. […] DMSO (1 ul) was added to Columns 11, 12, 23, 24, rows A-H for the maximum signal control and 1 ul of SAH, a known product and inhibitor of SMYD3, was added to columns 11, 12, 23, 24, rows I-P for the minimum signal control. A cocktail (40 ul) containing the SMYD3 enzyme was added by Multidrop Combi (Thermo-Fisher). The compounds were allowed to incubate with SMYD3 for 30 min at room temperature, then a cocktail (10 ul) containing SAM and MEKK2 was added to initiate the reaction (final volume=51 ul). […] The assays were stopped by the addition of non-radiolabeled SAM (10 ul) to a final concentration of 100 uM, which dilutes the ^3H-SAM to a level where its incorporation into MEKK2 is no longer detectable. Radiolabeled MEKK2 was detected using a scintillation proximity assay (SPA). 10 uL of a 10 mg/mL solution of SPA beads in 0.5 M citric acid was added and the plates centrifuged at 600 rpm for 1 min to precipitate the radiolabeled MEKK2 onto the SPA beads. The plates were then read in a PerkinElmer TopCount plate reader to measure the quantity of ^3H-labeled MEKK2 as disintegrations per minute (dpm) or alternatively, referred to as counts per minute (cpm).
Turning to `N[C@@H](Cc1ccccc1)C(=O)N1CCC(NC(=O)c2cc(C3CC3)on2)CC1` [compound 1, N-(1-(L-phenylalanyl)piperidin-4-yl)-5-cyclopropylisoxazole-3-carboxamide], the IC50 was 2.88 µM.
Take `N[C@H](Cc1c[nH]c2ccccc12)C(=O)N1CCC(NC(=O)c2cc(C3CC3)on2)CC1` [compound 2, N-(1-(D-tryptophyl)piperidin-4-yl)-5-cyclopropylisoxazole-3-carboxamide]: the IC50 is 15.5 µM.
For `N[C@@H](Cc1ccc(O)cc1)C(=O)N1CCC(NC(=O)c2cc(C3CC3)on2)CC1` [compound 3, N-(1-(L-tyrosyl)piperidin-4-yl)-5-cyclopropylisoxazole-3-carboxamide], the IC50 came to 0.486 µM.
The result for `NCC(=O)N[C@@H](Cc1c[nH]c2ccccc12)C(=O)N1CCC(NC(=O)c2cc(C3CC3)on2)CC1` [compound 4, 5-cyclopropyl-N-(1-(glycyl-L-tryptophyl)piperidin-4-yl)isoxazole-3-carboxamide] reads 0.947 µM.
Regarding `C[C@@H]1CC(NC(=O)c2cc(C3CC3)on2)CCN1C(=O)[C@@H](N)Cc1ccc(O)cc1` (stereo partly drawn) [compound 6, N-((2R)-1-(L-tyrosyl)-2-methylpiperidin-4-yl)-5-cyclopropylisoxazole-3-carboxamide], the IC50 came out at 2.97 µM.
Consider `C[C@H]1CC(NC(=O)c2cc(C3CC3)on2)CCN1C(=O)[C@@H](N)Cc1ccc(O)cc1` (stereo partly drawn) [compound 7, N-((2S)-1-(L-tyrosyl)-2-methylpiperidin-4-yl)-5-cyclopropylisoxazole-3-carboxamide], for which the IC50 is 1.04 µM.
In the case of `CN[C@@H](Cc1cn(C)c2ccccc12)C(=O)N1CCC(NC(=O)c2cc(C3CC3)on2)CC1` [compound 8, 5-cyclopropyl-N-(1-(Na,1-dimethyl-L-tryptophyl)piperidin-4-yl)isoxazole-3-carboxamide] it was 1.2 µM; in that of `N[C@@H](Cc1ccc(O)c(Br)c1)C(=O)N1CCC(NC(=O)c2cc(C3CC3)on2)CC1` [compound 9, (S)-N-(1-(2-amino-3-(3-bromo-4-hydroxyphenyl)propanoyl)piperidin-4-yl)-5-cyclopropylisoxazole-3-carboxamide], 0.214 µM; in that of `NC[C@H](Cc1ccccc1)C(=O)N1CCC(NC(=O)c2cc(C3CC3)on2)CC1` [compound 11, (S)-N-(1-(3-amino-2-benzylpropanoyl)piperidin-4-yl)-5-cyclopropylisoxazole-3-carboxamide], 2.41 µM.
Regarding `N[C@H]1CC[C@H](C(=O)N2CCC(NC(=O)c3cc(C4CC4)on3)CC2)CC1` [compound 13, N-(1-((1r,4R)-4-aminocyclohexane-1-carbonyl)piperidin-4-yl)-5-cyclopropylisoxazole-3-carboxamide], the IC50 is 1.29 µM.
For `N[C@@H](Cc1ccc(O)cc1)CN1CCC(NC(=O)c2cc(C3CC3)on2)CC1` [compound 14, (S)-N-(1-(2-amino-3-(4-hydroxyphenyl)propyl)piperidin-4-yl)-5-cyclopropylisoxazole-3-carboxamide], the IC50 is 4.59 µM.
Consider `O=C(NC1CCN(C(=O)C2CCNCC2)CC1)c1cc(C2CC2)on1` [compound 15, 5-cyclopropyl-N-(1-(piperidine-4-carbonyl)piperidin-4-yl)isoxazole-3-carboxamide], for which the IC50 turned out to be 8.55 µM.
With `CN1CCC(C(=O)N2CCC(NC(=O)c3cc(C4CC4)on3)CC2)CC1` [compound 16, 5-cyclopropyl-N-(1-(1-methylpiperidine-4-carbonyl)piperidin-4-yl)isoxazole-3-carboxamide], the IC50 was found to be 10 µM.
`O=C(NC1CCN(C(=O)CC2CCNCC2)CC1)c1cc(C2CC2)on1` [compound 17, 5-cyclopropyl-N-(1-(2-(piperidin-4-yl)acetyl)piperidin-4-yl)isoxazole-3-carboxamide]: the IC50 was 1.06 µM.
Consider `CN1CCC(CC(=O)N2CCC(NC(=O)c3cc(C4CC4)on3)CC2)CC1` [compound 18, 5-cyclopropyl-N-(1-(2-(1-methylpiperidin-4-yl)acetyl)piperidin-4-yl)isoxazole-3-carboxamide], for which the IC50 was 5.08 µM.
On to `O=C(NC1CCN(C(=O)[C@@H](CO)Cc2ccccc2)CC1)c1cc(C2CC2)on1` [compound 19, (R)-N-(1-(2-benzyl-3-hydroxypropanoyl)piperidin-4-yl)-5-cyclopropylisoxazole-3-carboxamide], for which the IC50 was 30.9 µM.
For the compound `N[C@H]1C[C@H](C(=O)N2CCC(NC(=O)c3cc(C4CC4)on3)CC2)C1` [compound 20, N-(1-((1r,3r)-3-aminocyclobutane-1-carbonyl)piperidin-4-yl)-5-cyclopropylisoxazole-3-carboxamide], the IC50 was 5.77 µM.
The result for `N[C@H]1C[C@@H](C(=O)N2CCC(NC(=O)c3cc(C4CC4)on3)CC2)C1` [compound 21, N-(1-((1s,3s)-3-aminocyclobutane-1-carbonyl)piperidin-4-yl)-5-cyclopropylisoxazole-3-carboxamide] reads 5.69 µM; that for `C[C@H]1CN(C(=O)[C@H]2CC[C@H](N)CC2)CCC1NC(=O)c1cc(C2CC2)on1` (stereo partly drawn) [compound 24, N-((3S)-1-((1r,4S)-4-aminocyclohexane-1-carbonyl)-3-methylpiperidin-4-yl)-5-cyclopropylisoxazole-3-carboxamide], 2 µM.
With `C[C@@H]1CN(C(=O)[C@H]2CC[C@H](N)CC2)CCC1NC(=O)c1cc(C2CC2)on1` (stereo partly drawn) [compound 25, N-((3R)-1-((1r,4R)-4-aminocyclohexane-1-carbonyl)-3-methylpiperidin-4-yl)-5-cyclopropylisoxazole-3-carboxamide], the IC50 turned out to be 0.299 µM.
As for `NC[C@@H](Cc1ccc(O)cc1)C(=O)N1CCC(NC(=O)c2cc(C3CC3)on2)CC1` [compound 26, (R)-N-(1-(3-amino-2-(4-hydroxybenzyl)propanoyl)piperidin-4-yl)-5-cyclopropylisoxazole-3-carboxamide], the IC50 worked out at 5.24 µM.
The result for `NC[C@H](Cc1ccc(O)cc1)C(=O)N1CCC(NC(=O)c2cc(C3CC3)on2)CC1` [compound 27, (S)-N-(1-(3-amino-2-(4-hydroxybenzyl)propanoyl)piperidin-4-yl)-5-cyclopropylisoxazole-3-carboxamide] reads 0.342 µM; that for `NC[C@@H](Cc1ccc(O)c(I)c1)C(=O)N1CCC(NC(=O)c2cc(C3CC3)on2)CC1` [compound 28, (R)-N-(1-(3-amino-2-(4-hydroxy-3-iodobenzyl)propanoyl)piperidin-4-yl)-5-cyclopropylisoxazole-3-carboxamide], 2.04 µM.
The result for `O=C(NC1CCN(C[C@H](O)Cc2ccc(O)cc2)CC1)c1cc(C2CC2)on1` [compound 30, (R)-5-cyclopropyl-N-(1-(2-hydroxy-3-(4-hydroxyphenyl)propyl)piperidin-4-yl)isoxazole-3-carboxamide] reads 42.7 µM; that for `O=C(NC1CCN(C(=O)[C@@H](CO)Cc2ccc(O)c(I)c2)CC1)c1cc(C2CC2)on1` [compound 31, (R)-5-cyclopropyl-N-(1-(3-hydroxy-2-(4-hydroxy-3-iodobenzyl)propanoyl)piperidin-4-yl)isoxazole-3-carboxamide], 5.1 µM.
`C[C@H](N)CC(=O)NC[C@@H](Cc1ccc(O)c(I)c1)C(=O)N1CCC(NC(=O)c2cc(C3CC3)on2)CC1` [compound 32, N-(1-((R)-3-((S)-3-aminobutanamido)-2-(4-hydroxy-3-iodobenzyl)propanoyl)piperidin-4-yl)-5-cyclopropylisoxazole-3-carboxamide]: the IC50 stood at 4.11 µM.
